The values that follow come from patent US20120283235A1, “Dermatologic and Cosmetic Compositions” (DISCOVERY PARTNERS LLC, priority 2009, published 2012).

This assay deals with Adult human dermal fibroblasts. The experiment in a line: Collagen type I in human dermal fibroblast conditioned media. It counts as cell-based. The settings on record: MAP 100 ug/ml; Vit. C 10 ug/ml; FIG. 1. Here is the method:
Adult human dermal fibroblasts (facial cells, from Cell Applications, Inc. San Diego, Calif., Catalog #106-05A, Lot 1339) were incubated for seventy-two hours in Fibroblast Growth Serum (Cell Applications, cat. #116-500). Four test formulations, each formulation used at three final test sample dilutions of 2.5%, 0.5% and 0.05%, were added to the incubated cells. All concentrations expressed in weight/weight unless otherwise noted: • (i) Test Formulation #1, CHL-01-057 (labeled “1”) served as a control and contained 90% purified water and 10% butylene glycol; • (ii) Test Formulation #2, CHL-01-053 (labeled “2”) containing 0.2% of 1-Disodium Copper Chlorin E4 in 10% butylene glycol and 89.8% purified water; • (iii) Test Formulation #3, (labeled #3) CHL-01-0 51 containing 0.2% Sodium Copper Chlorophyllin complex, USP in 10% butylene glycol and 89.8% purified water; • (iv) Test Formulation #4, CHL-01-055 (labeled “4”) containing 0.2% Sodium Zinc Chlorophyllin in 10% butylene glycol and 89.8% purified water. Based on the final dilutions, the amount of chlorin, chlorophyllin, or control compound added to the cell culture was 50 ppm, 10 ppm, and 1 ppm (ppm=parts per million by weight). Each of the above formulations was prepared by adding butylene glycol to water and mixing on a heating plate with a magnetic stirrer until the glycol fully dissolved. […]

For `O=C1O[C@H]([C@@H](O)CO)C([O-])=C1OP(=O)([O-])[O-].O=C1O[C@H]([C@@H](O)CO)C([O-])=C1OP(=O)([O-])[O-].[Mg+2].[Mg+2].[Mg+2]` [Magnesium Ascorbyl Phosphate, magnesium ascorbyl phosphate], the “stimulatory activity on type 1 collagen production (positive controls)” value is reported as “strong stimulatory activity”. As for `O=C1O[C@H]([C@@H](O)CO)C(O)=C1O` [vitamin C, ascorbic acid], the “stimulatory activity on type 1 collagen production (positive controls)” value was “strong stimulatory activity”.
